# Structures can show the parent of a compound that is named as a salt.
# Target: human HSV DNA polymerase UL30 (Human herpesvirus 1 (strain 17) (HHV-1) (Human herpes simplex virus 1), UniProt P04293)
# Assay: biochemical
# Details: 625 pM HSV polymerase, 20 minutes at room temperature; read-out: HSV-polymerase Biochemical IC50
row,Structure (SMILES),IC50 [nM]
1,"Cn1nc(C(=O)NCc2ccc(Cl)cc2)c2c1C(=O)N(CC1(S(=O)(=O)C(C)(C)[C@H](N)CO)CC1)CC2 [Example 214, (R)-6-((1-((3-Amino-4-hydroxy-2-methylbutan-2-yl)sulfonyl)cyclopropyl)methyl)-N-(4-chlorobenzyl)-1-methyl-7-oxo-4,5,6,7-tetrahydro-1H-pyrazolo[3,4-c]pyridine-3-carboxamide hydrochloride]",32
2,"N#Cc1ccc(CNC(=O)c2nn(CCO)c3c2CCN(CC2(S(=O)(=O)C4CC4)CC2)C3=O)cc1 [Example 216, N-(4-Cyanobenzyl)-6-((1-(cyclopropylsulfonyl)cyclopropyl)methyl)-1-(2-hydroxyethyl)-7-oxo-4,5,6,7-tetrahydro-1H-pyrazolo[3,4-c]pyridine-3-carboxamide]",69
3,CC1(S(=O)(=O)C2(CN3CCc4c(C(=O)NCc5ccc(C#N)cc5)nn(CCO)c4C3=O)CC2)CC1 [Example 217],26
4,O=C(NCc1ccc(Cl)cc1)c1nn(CCO)c2c1CCN(CC1(S(=O)(=O)C3CC3)CC1)C2=O [Example 218],50
5,CS(=O)(=O)C1(CN2CCc3c(C(=O)NCc4ccc(Cl)cc4)nn(CCO)c3C2=O)CC1 [Example 219],401
6,CC(C)(CO)S(=O)(=O)C1(CN2CCc3c(C(=O)NCc4ccc(C#N)cc4)nn(CCO)c3C2=O)CC1 [Example 220],23
7,CC(C)(CO)S(=O)(=O)C1(CN2CCc3c(C(=O)NCc4ccc(Cl)cc4)nn(CCO)c3C2=O)CC1 [Example 221],13
8,"CC1(S(=O)(=O)C2(CN3CCc4c(C(=O)NCc5ccc(Cl)cc5)nn(CCOCCO)c4C3=O)CC2)CC1 [Example 222, N-(4-Chlorobenzyl)-1-(2-(2-hydroxyethoxy)ethyl)-6-((1-((1-methylcyclopropyl)sulfonyl)cyclopropyl)methyl)-7-oxo-4,5,6,7-tetrahydro-1H-pyrazolo[3,4-c]pyridine-3-carboxamide]",43
9,"CC1(S(=O)(=O)C2(CN3CCc4c(C(=O)NCc5ccc(Cl)cc5)nn(CCOCCN)c4C3=O)CC2)CC1 [Example 223, 1-(2-(2-aminoethoxy)ethyl)-N-(4-chlorobenzyl)-6-((1-((1-methylcyclopropyl)sulfonyl)cyclopropyl)methyl)-7-oxo-4,5,6,7-tetrahydro-1H-pyrazolo[3,4-c]pyridine-3-carboxamide]",35
10,"CCC(=O)Cn1nc(C(=O)NCc2ccc(C#N)cc2)c2c1C(=O)N(CC1(S(=O)(=O)C3CC3)CC1)CC2 [Example 227, N-(4-cyanobenzyl)-6-((1-(cyclopropylsulfonyl)cyclopropyl)methyl)-7-oxo-1-(2-oxobutyl)-4,5,6,7-tetrahydro-1H-pyrazolo[3,4-c]pyridine-3-carboxamide]",31
11,"N#Cc1ccc(CNC(=O)c2nn(CC3(O)CC3)c3c2CCN(CC2(S(=O)(=O)C4CC4)CC2)C3=O)cc1 [Example 228, N-(4-Cyanobenzyl)-6-((1-(cyclopropylsulfonyl)cyclopropyl)methyl)-1-((1-hydroxycyclopropyl)methyl)-7-oxo-4,5,6,7-tetrahydro-1H-pyrazolo[3,4-c]pyridine-3-carboxamide]",56
12,"CC(C)(O)Cn1nc(C(=O)NCc2ccc(Cl)cc2)c2c1C(=O)N(CC1(S(=O)(=O)C3CC3)CC1)CC2 [Example 229, N-(4-Chlorobenzyl)-6-((1-(cyclopropylsulfonyl)cyclopropyl)methyl)-1-(2-hydroxy-2-methylpropyl)-7-oxo-4,5,6,7-tetrahydro-1H-pyrazolo[3,4-c]pyridine-3-carboxamide]",31
13,CC(C)(O)Cn1nc(C(=O)NCc2ccc(C#N)cc2)c2c1C(=O)N(CC1(S(=O)(=O)C3CC3)CC1)CC2 [Example 230],34
14,CC(C)(O)Cn1nc(C(=O)NCc2ccc(Cl)cc2)c2c1C(=O)N(CC1(S(C)(=O)=O)CC1)CC2 [Example 231],278
15,CC(C)(O)Cn1nc(C(=O)NCc2ccc(C#N)cc2)c2c1C(=O)N(CC1(S(C)(=O)=O)CC1)CC2 [Example 232],339
16,CCS(=O)(=O)C1(CN2CCc3c(C(=O)NCc4ccc(C#N)cc4)nn(CC(C)(C)O)c3C2=O)CC1 [Example 233],150
17,CC(C)(O)Cn1nc(C(=O)NCc2ccc(C#N)cc2)c2c1C(=O)N(CC1(S(=O)(=O)C3(CO)CC3)CC1)CC2 [Example 234],19
18,CC(C)(O)Cn1nc(C(=O)NCc2ccc(C#N)cc2)c2c1C(=O)N(CC1(S(=O)(=O)C(C)(C)CO)CC1)CC2 [Example 235],16
19,"N#Cc1ccc(CNC(=O)c2nn(CCCO)c3c2CCN(CC2(S(=O)(=O)C4CC4)CC2)C3=O)cc1 [Example 236, N-(4-Cyanobenzyl)-6-((1-(cyclopropylsulfonyl)cyclopropyl)methyl)-1-(3-hydroxypropyl)-7-oxo-4,5,6,7-tetrahydro-1H-pyrazolo[3,4-c]pyridine-3-carboxamide]",91
20,"CC1(S(=O)(=O)C2(CN3CCc4c(C(=O)NCc5ccc(C#N)cc5)nn(CCCO)c4C3=O)CC2)CC1 [Example 237, N-(4-Cyanobenzyl)-1-(3-hydroxypropyl)-6-((1-((1-methylcyclopropyl)sulfonyl)cyclopropyl)methyl)-7-oxo-4,5,6,7-tetrahydro-1H-pyrazolo[3,4-c]pyridine-3-carboxamide]",41
21,"CC(C)(CO)S(=O)(=O)C1(CN2CCc3c(C(=O)NCc4ccc(C#N)cc4)nn(CCOCCBr)c3C2=O)CC1 [Example 238, 1-(2-(2-Bromoethoxy)ethyl)-N-(4-cyanobenzyl)-6-((1-((1-hydroxy-2-methylpropan-2-yl)sulfonyl)cyclopropyl)methyl)-7-oxo-4,5,6,7-tetrahydro-1H-pyrazolo[3,4-c]pyridine-3-carboxamide]",16

# Test system: Luciferase-encoding HCMV (AD169 strain)
# Assay: microbe, parasite or virus in culture
# Format: cell-based
# Details: read-out: CMV-Luc Cellular EC50; NN-NHDF cells, MOI of 1, 72 hrs
row,Structure (SMILES),EC50 [nM]
1,"CC1Cc2c(C(=O)NCc3ccc(C#N)cc3)nn(C)c2C(=O)N1CC1(S(C)(=O)=O)CC1 (single isomer, unassigned) [Example 41, (R)- or (S)—N-(4-cyanobenzyl)-1,5-dimethyl-6-((1-(methylsulfonyl)cyclopropyl)methyl)-7-oxo-4,5,6,7-tetrahydro-1H-pyrazolo[3,4-c]pyridine-3-carboxamide]",> 10000
2,"CC1Cc2c(C(=O)NCc3ccc(C#N)cc3)nn(C)c2C(=O)N1CC1(S(C)(=O)=O)CC1 (single isomer, unassigned) [Example 42, (R)- or (S)—N-(4-cyanobenzyl)-1,5-dimethyl-6-((1-(methylsulfonyl)cyclopropyl)methyl)-7-oxo-4,5,6,7-tetrahydro-1H-pyrazolo[3,4-c]pyridine-3-carboxamide]",1180
3,"Cn1nc(C(=O)NCc2ccc(C#N)cc2)c2c1C(=O)N(CC1(S(=O)(=O)C(C)(C)COC(F)CO)CC1)CC2 (single isomer, unassigned) [Example 81, (R)- or (S)—N-(4-cyanobenzyl)-6-((1-((1-(1-fluoro-2-hydroxyethoxy)-2-methylpropan-2-yl)sulfonyl)cyclopropyl)methyl)-1-methyl-7-oxo-4,5,6,7-tetrahydro-1H-pyrazolo[3,4-c]pyridine-3-carboxamide]",42
4,"Cn1nc(C(=O)NCc2ccc(C#N)cc2)c2c1C(=O)N(CC1(S(=O)(=O)C(C)(C)COC(F)CN)CC1)CC2 (single isomer, unassigned) [Example 82, (R)- or (S)-6-((1-((1-(2-amino-1-fluoroethoxy)-2-methylpropan-2-yl)sulfonyl)cyclopropyl)methyl)-N-(4-cyanobenzyl)-1-methyl-7-oxo-4,5,6,7-tetrahydro-1H-pyrazolo[3,4-c]pyridine-3-carboxamide]",29
5,"Cn1nc(C(=O)NCc2ccc(C#N)cc2)c2c1C(=O)N(CC1(S(=O)(=O)C(C)(C)COC(F)CN)CC1)CC2 (single isomer, unassigned) [Example 83, (R)- or (S)-6-((1-((1-(2-amino-1-fluoroethoxy)-2-methylpropan-2-yl)sulfonyl)cyclopropyl)methyl)-N-(4-cyanobenzyl)-1-methyl-7-oxo-4,5,6,7-tetrahydro-1H-pyrazolo[3,4-c]pyridine-3-carboxamide]",133
6,"CC(O)COCC(C)(C)S(=O)(=O)C1(CN2CCc3c(C(=O)NCc4ccc(C#N)cc4)nn(C)c3C2=O)CC1 (single isomer, unassigned) [Example 91, (R)- or (S)—N-(4-Cyanobenzyl)-6-((1-((1-(2-hydroxypropoxy)-2-methylpropan-2-yl)sulfonyl)cyclopropyl)methyl)-1-methyl-7-oxo-4,5,6,7-tetrahydro-1H-pyrazolo[3,4-c]pyridine-3-carboxamide]",76
7,"CC1=NOC(C(C)(C)S(=O)(=O)C2(CN3CCc4c(C(=O)NCc5ccc(C#N)cc5)nn(C)c4C3=O)CC2)C1 (single isomer, unassigned) [Example 111, (R)- or (S)—N-(4-Cyanobenzyl)-1-methyl-6-((1-((2-(3-methyl-4,5-dihydroisoxazol-5-yl)propan-2-yl)sulfonyl)cyclopropyl)methyl)-7-oxo-4,5,6,7-tetrahydro-1H-pyrazolo[3,4-c]pyridine-3-carboxamide]",159
8,"CC1=NOC(C(C)(C)S(=O)(=O)C2(CN3CCc4c(C(=O)NCc5ccc(C#N)cc5)nn(C)c4C3=O)CC2)C1 (single isomer, unassigned) [Example 112, (R)- or (S)—N-(4-Cyanobenzyl)-1-methyl-6-((1-((2-(3-methyl-4,5-dihydroisoxazol-5-yl)propan-2-yl)sulfonyl)cyclopropyl)methyl)-7-oxo-4,5,6,7-tetrahydro-1H-pyrazolo[3,4-c]pyridine-3-carboxamide]",64
9,"CC(O)CC(C)(C)S(=O)(=O)C1(CN2CCc3c(C(=O)NCc4ccc(C#N)cc4)nn(C)c3C2=O)CC1 (single isomer, unassigned) [Example 116, (R)- or (S)—N-(4-Cyanobenzyl)-6-((1-((4-hydroxy-2-methylpentan-2-yl)sulfonyl)cyclopropyl)methyl)-1-methyl-7-oxo-4,5,6,7-tetrahydro-1H-pyrazolo[3,4-c]pyridine-3-carboxamide]",39
